Measured values reported in PMC12881674, “Activation of TRPV3 channels in bladder cancer cells stimulates ATP release” (Molecular Pharmacology, 2025).

Tested on: parental HEK cells
Assay: Ca2+ assays (fluo-4 and fura-2) in parental HEK cells lacking TRPV3
Format: cell-based, human
Conditions: concentrations up to 50 μM
Description: All fluorometric Ca^2+ assays were performed in HBS buffer at room temperature. The compounds of the Enamine Diversity Set were diluted in a buffer composed of 150 mM NaCl and 20 mM HEPES and added to the cells at a final concentration of 25 μM (0.5% DMSO). For the primary compound screening and the generation of concentration-response analyses, a robotic liquid handling station (Freedom Evo 150; Tecan) with a built-in custom-made fluorescence plate imager was used. HEKTRPV3 and bladder cancer cell lines were harvested and loaded with 4 μM fluo-4/AM (Invitrogen; Fisher Scientific) in cell culture medium for 30 minutes at 37 °C. […] Fluorescence was excited using a 470-nm light-emitting diode, and emitted light was imaged through a 515-nm–long pass filter with a cooled Zyla 5.5 camera (Andor). Fluorescence was recorded and processed under the control of the μ-Manager 2.0 gamma software (https://micro-manager.org.[28]). After recording baseline fluorescence, compounds were dispensed into the wells via the liquid handling device. […] For further analysis, fluorescence signals were calculated for each well, corrected for background intensities and normalized to the initial signals. […] Fluorescence signals were excited with a fiber-coupled monochromator device (Polychrome V; Till Photonics) at 340, 358, and 380 nm and calibrated as described before.[29] […]

## COC(=O)C12CN(Cc3ccccc3)CC1(C(=O)OC)CN(Cc1ccccc1)C2 (stereo not shown) [AV3-1]
  off-target effects on parental HEK cells: no detectable off-target effects
